From US8592426B2, “Aryl-benzocycloalkyl amide derivatives” (Hoffmann—La Roche Inc., priority 2011, dated 2013) come the findings set out here.

As a reminder, the Ki is the dissociation constant of the complex between target and ligand, obtained from inhibition or displacement. Low readings indicate a stronger hold on the target, high ones a looser hold on the target. By IC50 is commonly meant the concentration needed to halve the response being measured.

SMILES strings stand for the structures.

The target of assay [1] is T1, Bradykinin-1 receptor (Homo sapiens (Human), UniProt P46663). In words: Receptor binding assay (B1R Binding Assay), [3H]-Kallidin (Des Arg10, Leu9) displacement. Particulars: membranes from CHO-K1 cells overexpressing Bradykinin-1 receptor; 6 nM radioligand. The procedure:
Binding assays were done with membranes from CHO-K1 cells overexpressing Bradykinin-1 receptor.
To determine non-specific binding 10 μM Lys-(Des-Arg^9)-Bradykinin (Bachem) was added. Membranes were harvested through GF/B (glass fiber filter; PerkinElmer) plates, equilibrated with 0.5% polyethylenimine, air dried at 50° C. for 2 h. Radioactivity was determined by counting in a topcounter (NXT Packard).

Assay [2] concerns the target T1, Bradykinin-1 receptor. In words: Calcium mobilization assay (FLIPR, Fluo-4) in GeneBLAzer Bradykinin (B1)-NFAT-bla CHO-K1 cells. It counts as cell-based. Particulars: antagonist activity; CHO-K1 cells stably overexpressing the human bradykinin 1 receptor; read-out: Ca mobilization Assay IC50. As for the experimental part: Calcium Mobilization Assay
GeneBLAzer® Bradykinin (B1)-NFAT-bla CHO-K1 cells (from Invitrogen) stably overexpressing the human bradykinin 1 receptor were cultured in DMEM (high glucose) supplemented with 10% dialysed FBS, 1% NEAA (non essential amino acids) 1% penicillin/streptomycin, 1% G418 and 0.1 mg/ml zeocin.
For the assay cells were grown overnight in 384-well black clear flat bottom polystyrene plates (Costar) at 37° C. at 5% CO2. After washing with DMEM, 20 mM Hepes, 2.5 mM probenecid, 0.1% BSA (DMEM assay buffer) cells were loaded with 4 μM Fluo-4 in the same DMEM assay buffer for 2 hours at 30° C. Excess dye was removed and cells were washed with DMEM assay buffer. 384-well compound plates were prepared with DMEM assay buffer/0.5% DMSO with or without various concentrations of test compounds. Usually compounds were tested for agonist and antagonist activity.
Test compounds were added to the assay plate and agonist activity was monitored as fluorescence for 80 seconds with a FLIPR (488 nm excitation; 510-570 nm emission; Molecular Devices). After 20-30 min. of incubation at 30° C., 20 nM […] (R&D; Roche) was added and fluorescence was monitored again for 80 seconds. Increases in intracellular calcium are reported as maximum fluorescence after agonist exposure minus basal fluorescence before exposure.
Background: Calcium flux is commonly read through the fluorescence of an indicator in the cells.

T1 sequence (P46663 whole entry): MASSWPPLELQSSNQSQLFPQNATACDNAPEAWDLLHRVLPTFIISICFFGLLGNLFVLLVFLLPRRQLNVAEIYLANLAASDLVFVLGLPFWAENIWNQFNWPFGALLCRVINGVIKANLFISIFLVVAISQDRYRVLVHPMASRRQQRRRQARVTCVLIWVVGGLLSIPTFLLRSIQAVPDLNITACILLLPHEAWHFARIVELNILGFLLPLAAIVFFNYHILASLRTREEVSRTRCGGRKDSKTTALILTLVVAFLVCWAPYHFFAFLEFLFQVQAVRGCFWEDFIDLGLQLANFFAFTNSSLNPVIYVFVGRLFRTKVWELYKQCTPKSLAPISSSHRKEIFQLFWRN

Turning to `COc1ncc(C(=O)NC2(C(=O)NC3CCc4cc(-c5cc(Cl)cc(F)c5-c5noc(C)n5)cc(F)c43)CC2)cn1` (racemic) [Example 33, 2-Methoxy-pyrimidine-5-carboxylic acid(1-{(rac)-5-[5-chloro-3-fluoro-2-(5-methyl-[1,2,4]oxadiazol-3-yl)-phenyl]-7-fluoro-indan-1-ylcarbamoyl}-cyclopropyl)-amide], the affinity in assay [1] corresponds to a Ki of 18.9 nM. Further, the IC50 in assay [2] was 0.5 nM.

`Cc1nc(-c2c(F)cc(Cl)cc2-c2cc(F)c3c(c2)CCC3NC(=O)C2(NC(=O)c3ccnnc3)CC2)no1` (racemic) [Example 34, Pyridazine-4-carboxylic acid(1-{(rac)-5-[5-chloro-3-fluoro-2-(5-methyl-[1,2,4]oxadiazol-3-yl)-phenyl]-7-fluoro-indan-1-ylcarbamoyl}-cyclopropyl)-amide] yielded an inhibitory constant (Ki) in assay [1] of 15.1 nM. Moreover, the IC50 in assay [2] worked out at 0.6 nM.

Turning to `COc1cc(C(=O)NC2(C(=O)NC3CCc4cc(-c5cc(Cl)cc(F)c5-c5noc(C)n5)cc(F)c43)CC2)on1` (racemic) [Example 35, 3-Methoxy-isoxazole-5-carboxylic acid(1-{(rac)-5-[5-chloro-3-fluoro-2-(5-methyl-[1,2,4]oxadiazol-3-yl)-phenyl]-7-fluoro-indan-1-ylcarbamoyl}-cyclopropyl)-amide], affinity in assay [1] was put at a Ki of 17.1 nM. Also, in assay [2], the half-maximal inhibitory concentration (IC50) amounted to 0.5 nM.

In assay [1], `Cc1nc(-c2c(F)cc(Cl)cc2-c2cnc3c(c2)CCC3NC(=O)C2(NC(=O)OC(C)(C)C)CC2)no1` (racemic) [Example 36, (1-{(rac)-3-[5-Chloro-3-fluoro-2-(5-methyl-[1,2,4]oxadiazol-3-yl)-phenyl]-6,7-dihydro-5H-[1]pyrindin-7-ylcarbamoyl}-cyclopropyl)-carbamic acid tert-butyl ester] returned an inhibition constant (Ki) of 361 nM. In addition, the half-inhibitory concentration (IC50) in assay [2] came out at 3.6 nM.

Turning to `Cc1nc(-c2c(F)cc(Cl)cc2-c2cnc3c(c2)CCC3NC(=O)C2(N)CC2)no1` (racemic) [Example 37, 1-Amino-cyclopropanecarboxylic acid{(rac)-3-[5-chloro-3-fluoro-2-(5-methyl-[1,2,4]oxadiazol-3-yl)-phenyl]-6,7-dihydro-5H-[1]pyrindin-7-yl}-amide], the affinity in assay [1], expressed as Ki, was 591 nM. Further, the IC50 in assay [2] was 301 nM.

For the molecule `COc1cc(C(=O)NC2(C(=O)NC3CCc4cc(-c5cc(Cl)cc(F)c5-c5noc(C)n5)cnc43)CC2)on1` (racemic) [Example 38, 3-Methoxy-isoxazole-5-carboxylic acid(1-{(rac)-3-[5-chloro-3-fluoro-2-(5-methyl-[1,2,4]oxadiazol-3-yl)-phenyl]-6,7-dihydro-5H-[1]pyrindin-7-ylcarbamoyl}-cyclopropyl)-amide], the Ki in assay [1] was 3 nM. In addition, the IC50 in assay [2] came out at 0.2 nM.

Turning to `Cc1nc(-c2c(F)cc(Cl)cc2-c2cnc3c(c2)CCC3NC(=O)C2(NC(=O)c3ccnnc3)CC2)no1` (racemic) [Example 39, Pyridazine-4-carboxylic acid(1-{(rac) 3-[5-chloro-3-fluoro-2-(5-methyl-[1,2,4]oxadiazol-3-yl)-phenyl]-6,7-dihydro-5H-[1]pyrindin-7-ylcarbamoyl}-cyclopropyl)-amide], the Ki in assay [1] is 7.5 nM. Also, the IC50 in assay [2] is 0.6 nM.

`COc1ncc(C(=O)NC2(C(=O)NC3CCc4cc(-c5cc(Cl)cc(F)c5-c5noc(C)n5)cnc43)CC2)cn1` (racemic) [Example 42, 2-Methoxy-pyrimidine-5-carboxylic acid(1-{(rac)-3-[5-chloro-3-fluoro-2-(5-methyl-[1,2,4]oxadiazol-3-yl)-phenyl]-6,7-dihydro-5H-[1]pyrindin-7-ylcarbamoyl}-cyclopropyl)-amide] registered a Ki in assay [1] of 4 nM. Besides, the IC50 in assay [2] was found to be 0.2 nM.

`Cc1nc(-c2c(F)cc(Cl)cc2-c2cnc3c(c2)CCC3NC(=O)C2(NC(=O)c3ccno3)CC2)no1` (racemic) [Example 43, Isoxazole-5-carboxylic acid(1-{(rac)-3-[5-chloro-3-fluoro-2-(5-methyl-[1,2,4]oxadiazol-3-yl)-phenyl]-6,7-dihydro-5H-[1]pyrindin-7-ylcarbamoyl}-cyclopropyl)-amide] yielded a Ki in assay [1] of 6.3 nM. In addition, the IC50 in assay [2] came to 0.3 nM.

Take `Cc1nc(-c2c(F)cc(Cl)cc2-c2ccc3c(c2)OCC3NC(=O)C2(N)CC2)no1` (racemic) [Example 45, 1-Amino-cyclopropanecarboxylic acid{(rac)-6-[5-chloro-3-fluoro-2-(5-methyl-[1,2,4]oxadiazol-3-yl)-phenyl]-2,3-dihydro-benzofuran-3-yl}-amide]: the affinity in assay [1] corresponds to a Ki of 1530 nM. Further, the IC50 in assay [2] amounted to 701 nM.

For the molecule `Cc1nc(-c2c(F)cc(Cl)cc2-c2ccc3c(c2)OCC3NC(=O)C2(NC(=O)c3ccnnc3)CC2)no1` (racemic) [Example 46, Pyridazine-4-carboxylic acid(1-{(rac)-6-[5-chloro-3-fluoro-2-(5-methyl-[1,2,4]oxadiazol-3-yl)-phenyl]-2,3-dihydro-benzofuran-3-ylcarbamoyl}-cyclopropyl)-amide], the Ki in assay [1] amounted to 19.1 nM. Also, the IC50 in assay [2] was 4.7 nM.

Molecule `COc1ncc(C(=O)NC2(C(=O)NC3COc4cc(-c5cc(Cl)cc(F)c5-c5noc(C)n5)ccc43)CC2)cn1` (racemic) [Example 47, 2-Methoxy-pyrimidine-5-carboxylic acid(1-{(rac)-6-[5-chloro-3-fluoro-2-(5-methyl-[1,2,4]oxadiazol-3-yl)-phenyl]-2,3-dihydro-benzofuran-3-ylcarbamoyl}-cyclopropyl)-amide] showed a Ki in assay [1] of 5.4 nM. For the same molecule, the IC50 in assay [2] was found to be 0.2 nM.

On to `COc1cc(C(=O)NC2(C(=O)NC3COc4cc(-c5cc(Cl)cc(F)c5-c5noc(C)n5)ccc43)CC2)on1` (racemic) [Example 48, 3-Methoxy-isoxazole-5-carboxylic acid(1-{(rac)-6-[5-chloro-3-fluoro-2-(5-methyl-[1,2,4]oxadiazol-3-yl)-phenyl]-2,3-dihydro-benzofuran-3-ylcarbamoyl}-cyclopropyl)-amide], for which, in assay [1], the Ki came to 23.8 nM. Moreover, in assay [2], the IC50 was determined as 4 nM.

Molecule `Cn1nnc(-c2c(F)cc(Cl)cc2-c2cnc3c(c2)CCC3NC(=O)C2(NC(=O)OC(C)(C)C)CC2)n1` (racemic) [Example 54, (1-{(rac)-3-[5-Chloro-3-fluoro-2-(2-methyl-2H-tetrazol-5-yl)-phenyl]-6,7-dihydro-5H-[1]pyrindin-7-ylcarbamoyl}-cyclopropyl)-carbamic acid tert-butyl ester] had a Ki in assay [1] of 63.2 nM. Besides, the IC50 in assay [2] came to 5.8 nM.

As for `Cn1nnc(-c2c(F)cc(Cl)cc2-c2cnc3c(c2)CCC3NC(=O)C2(N)CC2)n1` (racemic) [Example 55, 1-Amino-cyclopropanecarboxylic acid{(rac)-3-[5-chloro-3-fluoro-2-(2-methyl-2H-tetrazol-5-yl)-phenyl]-6,7-dihydro-5H-[1]pyrindin-7-yl}-amide], the Ki in assay [1] came out at 211 nM. Further, the IC50 in assay [2] turned out to be 61.1 nM.

`COc1ncc(C(=O)NC2(C(=O)NC3CCc4cc(-c5cc(Cl)cc(F)c5-c5nnn(C)n5)cnc43)CC2)cn1` (racemic) [Example 56, 2-Methoxy-pyrimidine-5-carboxylic acid(1-{(rac)-3-[5-chloro-3-fluoro-2-(2-methyl-2H-tetrazol-5-yl)-phenyl]-6,7-dihydro-5H-[1]pyrindin-7-ylcarbamoyl}-cyclopropyl)-amide]: the Ki in assay [1] is 4.5 nM. Moreover, in assay [2], the IC50 worked out at 0.2 nM.

`Cn1nnc(-c2c(F)cc(Cl)cc2-c2cnc3c(c2)CCC3NC(=O)C2(NC(=O)c3ccno3)CC2)n1` (racemic) [Example 57, Isoxazole-5-carboxylic acid(1-{(rac)-3-[5-chloro-3-fluoro-2-(2-methyl-2H-tetrazol-5-yl)-phenyl]-6,7-dihydro-5H-[1]pyrindin-7-ylcarbamoyl}-cyclopropyl)-amide] returned a Ki in assay [1] of 5.8 nM. In addition, in assay [2], the IC50 came out at 0.4 nM.

On to `Cc1cc(C(=O)NC2(C(=O)NC3CCc4cc(-c5cc(Cl)cc(F)c5-c5nnn(C)n5)cnc43)CC2)on1` (racemic) [Example 58, 3-Methyl-isoxazole-5-carboxylic acid(1-{(rac)-3-[5-chloro-3-fluoro-2-(2-methyl-2H-tetrazol-5-yl)-phenyl]-6,7-dihydro-5H-[1]pyrindin-7-ylcarbamoyl}-cyclopropyl)-amide], for which the Ki in assay [1] is 6.3 nM. In addition, the IC50 in assay [2] was 0.4 nM.

On to `COc1cc(C(=O)NC2(C(=O)NC3CCc4cc(-c5cc(Cl)cc(F)c5-c5nnn(C)n5)cnc43)CC2)on1` (racemic) [Example 59, 3-Methoxy-isoxazole-5-carboxylic acid(1-{(rac)-3-[5-chloro-3-fluoro-2-(2-methyl-2H-tetrazol-5-yl)-phenyl]-6,7-dihydro-5H-[1]pyrindin-7-ylcarbamoyl}-cyclopropyl)-amide], for which the Ki in assay [1] stood at 3.5 nM. Further, the IC50 in assay [2] turned out to be 0.3 nM.
